US12187709B2 (Genentech, Inc., priority 2021, dated 2025)

Columns and labels:
[1] = biological target: Human Cbl-b (residues 40-426) (Homo sapiens (Human), UniProt Q13191); experiment: Cbl-b SPR assay; type: binding; details: for Fold of selectivity: C-cbl SPR Kd vs Cbl-b SPR Kd; for Kd: SPR, 20° C.
Outline: (§1)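 Where a chaser compound was used, % compound bound was calculated as (1−(RUT/RUT0))*100 relative to a prior chaser injection and fitted to a single exponential for kd. The single cycle titration (max 500 nM) was then fitted with kd held fixed.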

c-Cbl (residues 47-435) = c-Cbl (residues 47-435) (Homo sapiens (Human), UniProt P22681); experiment: c-Cbl SPR assay; type: binding; details: 20° C.
Chain of c-Cbl (residues 47-435) (P22681 47-435): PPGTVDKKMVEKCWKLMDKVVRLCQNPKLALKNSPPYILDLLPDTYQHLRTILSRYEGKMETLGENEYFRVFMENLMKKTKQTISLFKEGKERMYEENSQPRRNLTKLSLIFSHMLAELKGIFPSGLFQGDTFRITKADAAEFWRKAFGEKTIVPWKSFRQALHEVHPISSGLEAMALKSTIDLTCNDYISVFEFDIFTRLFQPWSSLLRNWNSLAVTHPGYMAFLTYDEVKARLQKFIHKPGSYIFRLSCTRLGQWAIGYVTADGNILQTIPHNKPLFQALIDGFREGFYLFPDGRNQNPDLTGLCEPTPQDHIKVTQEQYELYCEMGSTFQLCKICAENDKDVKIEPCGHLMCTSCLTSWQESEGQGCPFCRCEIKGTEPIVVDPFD
Outline: as §1

c-Cbl = c-Cbl (Homo sapiens (Human), UniProt P22681); experiment: C-Cbl LCK Ub TR-FRET assay (C-cbl Lck HTRF); type: biochemical
Chain of c-Cbl (P22681 47-435): as above
Outline: (§2)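 Signal is read once the detection mix has stood 20 min at ambient temperature. Curves are anchored by DMSO as maximum and by omission of LCK as minimum.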

Cbl-b = Cbl-b (Homo sapiens (Human), UniProt Q13191); experiment: Cbl-b LCK Ub TR-FRET assay (Cbl-b Lck HTRF); type: biochemical; details: for IC50: Cbl-b LCK Ub TR-FRET; for fold-selectivity (Cbl-b over C-cbl) / (fold-selectivity) Cbl-b and C-Cbl Selectivity: ratio C-cbl Lck HTRF IC50 / Cbl-b Lck HTRF IC50
Chain of Cbl-b (Q13191 40-426): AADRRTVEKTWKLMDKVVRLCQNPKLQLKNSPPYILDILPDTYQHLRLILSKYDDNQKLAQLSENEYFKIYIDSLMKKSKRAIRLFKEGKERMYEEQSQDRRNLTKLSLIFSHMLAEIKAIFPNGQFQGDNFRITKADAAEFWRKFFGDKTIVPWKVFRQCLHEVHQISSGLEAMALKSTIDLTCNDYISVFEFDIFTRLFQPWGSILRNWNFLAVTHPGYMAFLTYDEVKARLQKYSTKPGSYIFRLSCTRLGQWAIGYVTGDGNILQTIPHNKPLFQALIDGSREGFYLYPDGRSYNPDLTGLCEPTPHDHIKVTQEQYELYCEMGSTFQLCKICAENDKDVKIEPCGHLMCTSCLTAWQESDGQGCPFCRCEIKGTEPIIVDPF
Outline: as §2

Chain of Human Cbl-b (residues 40-426) (Q13191 40-426): as above

Fold of selectivity [1] | Kd [1] | Kd (c-Cbl (residues 47-435)) | IC50 (c-Cbl) | IC50 (Cbl-b) | fold-selectivity (Cbl-b over C-cbl) (Cbl-b) | IC50 (Cbl-b; Example 121) | (fold-selectivity) Cbl-b and C-Cbl Selectivity (Cbl-b) | SMILES
4.4× | 80 nM | 350 nM | 390 nM | 170 nM | (2.3x) |  |  | Cn1cnnc1[C@]1(c2cccc(N3Cc4c(cc(CNC5(C)CCC5)cc4C(F)(F)F)C3=O)c2)C[C@@H](O)C1 [Compound 20, 2-(3-((1r,3r)-3-hydroxy-1-(4-methyl-4H-1,2,4-triazol-3-yl)cyclobutyl)phenyl)-6-(((1-methylcyclobutyl)amino)methyl)-4-(trifluoromethyl)isoindolin-1-one]
6.6× | 460 nM | 3000 nM | 4300 nM | 600 nM | 7.2x |  |  | Cn1cnnc1[C@]1(c2cccc(N3Cc4c(cc(CNC5(C)CCC5)cc4C(F)(F)F)C3=O)c2)C[C@H]([S@@+](C)[O-])C1 (single isomer, unassigned) [Compound 161]
6.4× | 440 nM | 2800 nM | 610 nM | 290 nM | 2.1x |  |  | Cn1cnnc1[C@H](c1cccc(N2Cc3c(cc(CNC4(C)CCC4)cc3C(F)(F)F)C2=O)c1)C1CC1 (single isomer, unassigned) [Compound 343]
10× | 5.7 nM | 57 nM | 43 nM |  |  | 14 nM | 3.1x | Cn1cnnc1[C@@H](c1cccc(N2Cc3c(cc(CNC4(C)CCC4)cc3C(F)F)C2=O)c1)C1CC(F)C1 (single isomer, unassigned) [Compound 458]
13× | 0.87 nM | 12 nM | 11 nM |  |  | 7.5 nM | 1.5x | CO[C@H]1C[C@](c2cccc(N3Cc4c(cc(CNCC5CCC5)cc4C(F)(F)F)C3=O)c2)(c2nncn2C)C1 [Compound 416, 6-(((cyclobutylmethyl)amino)methyl)-2-(3-((1r,3r)-3-methoxy-1-(4-methyl-4H-1,2,4-triazol-3-yl)cyclobutyl)phenyl)-4-(trifluoromethyl)isoindolin-1-one]
24× | 82 nM | 1900 nM | 1100 nM | 110 nM | 10x |  |  | Cn1cnnc1[C@]1(c2cccc(N3Cc4c(cc(CNC5(C)CCC5)cc4C(F)(F)F)C3=O)c2)C[C@]2(CCCO2)C1 [Compound 340, 2-(3-((2s, 4r)-2-(4-methyl-4H-1,2,4-triazol-3-yl)-5-oxaspiro[3.4]octan-2-yl)phenyl)-6-(((1-methylcyclobutyl)amino)methyl)-4-(trifluoromethyl) isoindolin-1-one]
11× | 7.6 nM | 85 nM | 50 nM |  |  | 14 nM | 3.6x | CO[C@H]1C[C@](c2cccc(N3Cc4c(cc(CNCC5(O)CC5)cc4C(F)(F)F)C3=O)c2)(c2nncn2C)C1 [Compound 473, 6-((((1-hydroxycyclopropyl)methyl)amino)methyl)-2-(3-((1r,3r)-3-methoxy-1-(4-methyl-4H-1,2,4-triazol-3-yl)cyclobutyl)phenyl)-4-(trifluoromethyl)isoindolin-1-one]
4.1× | 3.2 nM | 13 nM | 9.1 nM | 7.4 nM | 1.2x |  |  | CCNc1cc([C@]2(c3nncn3C)C[C@H](C)C2)cc(N2Cc3c(cc(CNC4(C)CCC4)cc3C(F)(F)F)C2=O)c1F [Compound 336, 2-(3-(ethylamino)-2-fluoro-5-((1r,3r)-3-methyl-1-(4-methyl-4H-1,2,4-triazol-3-yl)cyclobutyl)phenyl)-6-(((1-methylcyclobutyl)amino)methyl)-4-(trifluoromethyl)isoindolin-1-one]
4.6× | 5.8 nM | 30 nM | 85 nM | 33 nM | 2.5x |  |  | CCO[C@H]1C[C@@](c2cccc(N3Cc4c(cc(CNC5(C)CCC5)cc4C(F)(F)F)C3=O)c2)(c2nncn2C)C1 [Compound 178, 2-(3-((1s,3s)-3-ethoxy-1-(4-methyl-4H-1,2,4-triazol-3-yl)cyclobutyl)phenyl)-6-(((1-methylcyclobutyl)amino)methyl)-4-(trifluoromethyl)isoindolin-1-one]
2.4× | 12 nM | 30 nM | 82 nM | 34 nM | 2.4x |  |  | CO[C@H]1C[C@@](c2cc(OC(C)C)cc(N3Cc4c(cc(CNC5(C)CCC5)cc4C(F)(F)F)C3=O)c2)(c2nncn2C)C1 [Compound 206, 2-(3-isopropoxy-5-((1s,3s)-3-methoxy-1-(4-mehtyl-4H-1,2,4-triazol-3-yl)cyclobutyl)phenyl)-6-(((1-methylcyclobutyl)amino)methyl)-4-(trifluoromethyl)isoindolin-1-one]
5.0× | 16 nM | 81 nM | 62.5 nM | 25 nM | (2.5x) |  |  | C[C@H]1CCCN(Cc2cc3c(c(C(F)(F)F)c2)CN(c2cccc(C4(c5nncn5C)CC5(COC5)C4)c2)C3=O)C1 (single isomer, unassigned) [Compound 66]
4.7× | 67 nM | 310 nM | 290 nM | 88 nM | 3.4x |  |  | CO[C@H]1C[C@@](c2cccc(N3Cc4c(cc(CN5CCN(C)C[C@@H]5C(C)C)cc4C(F)(F)F)C3=O)c2)(c2nncn2C)C1 (single isomer, unassigned) [Compound 172]
10× | 2 nM | 21 nM | 24 nM |  |  | 13 nM | 1.9x | Cn1cnnc1C(c1cccc(N2Cc3c(cc(CNC4(C)CCC4)cc3C(F)(F)F)C2=O)c1)C1(F)CSC1 (centres unmarked) [Compound 462, 2-(3-((3-fluorothietan-3-yl)(4-methyl-4H-1,2,4-triazol-3-yl)methyl)phenyl)-6-(((1-methylcyclobutyl)amino)methyl)-4-(trifluoromethyl)isoindolin-1-one]
7.2× | 2.6 nM | 19 nM | 23 nM |  |  | 5.8 nM | 4.0x | Cn1cnnc1[C@]1(c2cccc(N3Cc4c(cc(CNC5(C)CCC5)cc4C(F)(F)F)C3=O)c2)C[C@@H](OC2CC2)C1 [Compound 450, 2-(3-((1r,3r)-3-cyclopropoxy-1-(4-methyl-4H-1,2,4-triazol-3-yl)cyclobutyl)phenyl)-6-(((1-methylcyclobutyl)amino)methyl)-4-(trifluoromethyl)isoindolin-1-one]
2.9× | 36 nM | 110 nM | 110 nM | 78 nM | 1.4x |  |  | CCc1cc(N2Cc3c(cc(CNC4(C)CCC4)cc3C(F)(F)F)C2=O)cc([C@]2(c3nncn3C)C[C@@H](OC)C2)c1 [Compound 235, 2-(3-ethyl-5-((1s,3s)-3-methoxy-1-(4-methyl-4H-1,2,4-triazol-3-yl)cyclobutyl)phenyl)-6-(((1-methylcyclobutyl)amino)methyl)-4-(trifluoromethyl)isoindolin-1-one]
7.2× | 60 nM | 430 nM | 510 nM | 170 nM | (3.0x) |  |  | Cn1cnnc1[C@]1(c2cccc(N3Cc4c(cc(CNC5(C)CCC5)cc4C(F)(F)F)C3=O)c2)C[C@@](C)(O)C1 [Compound 27, 2-(3-((1r,3r)-3-hydroxy-3-methyl-1-(4-methyl-4H-1,2,4-triazol-3-yl)cyclobutyl)phenyl)-6-(((1-methylcyclobutyl)amino)methyl)-4-(trifluoromethyl)isoindolin-1-one]
11× | 95 nM | 1100 nM | 570 nM |  |  | 82 nM | 7.1x | CO[C@H]1C[C@](c2cccc(N3Cc4c(cc(CNC5COC5)cc4C(F)(F)F)C3=O)c2)(c2nncn2C)C1 [Compound 476, 2-(3-((1r,3r)-3-methoxy-1-(4-methyl-4H-1,2,4-triazol-3-yl)cyclobutyl)phenyl)-6-((oxetan-3-ylamino)methyl)-4-(trifluoromethyl)isoindolin-1-one]
5.3× | 600 nM | 3500 nM | 2400 nM |  |  |  | 4.2x | CC1(NCc2cc3c(c(C(F)(F)F)c2)CN(c2cccc([C@@H](C4COC4)n4ccnn4)c2)C3=O)CCC1 (single isomer, unassigned) [Compound 436]
4.8× | 110 nM | 530 nM | 390 nM | 150 nM | 2.6x |  |  | CO[C@H]1C[C@](c2cc(OC3CCCC3)cc(N3Cc4c(cc(CNC5(C)CCC5)cc4C(F)(F)F)C3=O)c2)(c2nncn2C)C1 [Compound 212, 2-(3-(cyclopentyloxy)-5-((1r,3r)-3-methoxy-1-(4-methyl-4H-1,2,4-triazol-3-yl)cyclobutyl)phenyl)-6-(((1-methylcyclobutyl)amino)methyl)-4-(trifluoromethyl)isoindolin-1-one]
